From US20160221944A1, “PYRROLIDINE DERIVATIVES AS OXYTOCIN/VASOPRESSIN V1a RECEPTORS ANTAGONISTS” (ObsEva S.A., priority 2013, published 2016)

How the values were obtained:
[1] = system: spontaneous uterine contractions; test: Inhibition of spontaneous uterine contractions in anesthetized late-term pregnant rat; assay type: in vivo; settings: oral, 10, 30 or 60 mg/kg; at any time during the 170-180 minutes observation
Excerpt: Late-term pregnant (certified at days 19-21 of pregnancy) Sprague Dawley CD (SD) BR female rats (Charles River, Calco, Italy), weighing 350-400 g were anesthetized with urethane (1.05 g/kg, i.p.) and placed on a homeothermic operating table. A midline incision at the hypogastrium level was made, one pregnant uterine horn exposed and its tubal end (near the ovary) was closed by a ligature with surgical silk. […] After the surgical preparation, a 30-min stabilization period was observed and then the effects of increasing doses of compounds of the present invention (given as 10-min i.v. infusion, bolus i.v. or p.o.) were evaluated by measuring the resulting uterine contractions. For the i.v. administration (infusion or bolus) the uterine contractile activity was quantified by calculating the AUC during the 10-min injection period. The percent variation of the AUC values relative to the spontaneous uterine response observed after each compound administration was calculated in comparison to the value recorded before the first dose-administration (basal value). The effect of test compounds of the present invention was evaluated by comparing pre- and post-treatment luminal uterine pressure values. […] Statistical differences between treatment groups at each time-point were determined by using one-way ANOVA followed by Tukey test. […]

[2] = Isomeric interconversion in dose formulations (HPLC); assay type: physicochemical; settings: oral (Labrasol:water 1:1) and intravenous (NP3S) dose formulations, pre- and post-dose
Method: (§1) Dose formulations were prepared in an appropriate matrix; intravenous doses were prepared in NP3S, whilst oral doses were prepared in Labrasol:water (1:1 v/v).

[3] = Qualitative solubility/crystallisation tests on 15 mg scale; assay type: physicochemical
[4] = In vivo stability: isomeric interconversion after single oral and intravenous doses in rats; parameters: species or system rat; settings: female rats
Method: The animals used in this study were Sprague-Dawley, Crl: CD®BR albino rats. All animals were supplied by Charles River UK Ltd (Margate, Kent, UK). Animals were in the weight range 200-260 g and were approximately 2 months old. Rats were given a unique identity number and were identified by unique tail markings plus cage location.
The dose groups were as follows: 4 female were given an oral dose and 4 female were given an intravenous dose.
as §1

vasopressin V1a receptor = vasopressin V1a receptor (Homo sapiens, UniProt P37288); test: Binding to vasopressin V1a receptor; settings: read-out: inhibition constant Ki to the vasopressin V1a receptor
Sequence of vasopressin V1a receptor (P37288 whole entry, species assumed): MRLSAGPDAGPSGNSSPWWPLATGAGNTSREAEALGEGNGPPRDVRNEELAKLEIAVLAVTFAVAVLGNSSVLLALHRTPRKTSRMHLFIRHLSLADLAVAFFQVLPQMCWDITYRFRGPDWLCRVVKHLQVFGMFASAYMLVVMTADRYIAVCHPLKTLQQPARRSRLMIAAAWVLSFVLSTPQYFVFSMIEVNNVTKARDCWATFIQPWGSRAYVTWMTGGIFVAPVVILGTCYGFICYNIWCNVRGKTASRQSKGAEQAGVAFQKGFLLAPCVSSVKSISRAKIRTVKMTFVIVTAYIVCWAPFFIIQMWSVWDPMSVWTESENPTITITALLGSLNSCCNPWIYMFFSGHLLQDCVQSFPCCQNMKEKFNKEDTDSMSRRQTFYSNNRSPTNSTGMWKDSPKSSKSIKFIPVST

Row | Structure (SMILES) | inhibition of uterine contraction [1] | interconversion to E-isomer during dose preparation or administration [2] | Qualitative solubility, Dissolves in: ([3]; DIPE, hot) | Qualitative solubility, Dissolves in: ([3]; IPA, hot) | Qualitative solubility, Dissolves in: ([3]; MIBK, hot) | Qualitative solubility, Dissolves in: ([3]; THF, cold) | Qualitative solubility, Comment ([3]; heptanes) | Qualitative solubility, Dissolves in: ([3]; tBuOH, hot) | Qualitative solubility, Dissolves in: ([3]; toluene, cold) | [14C]-E-isomer present in plasma ([4]; 30 mg/kg oral or intravenous, plasma collected up to 6 hours) | isomeric interconversion in vivo ([4]; 30 mg/kg, after oral or intravenous dose administration) | Ki (vasopressin V1a receptor)
1 | CO/N=C1\C[C@@H](CO)N(C(=O)c2ccc(-c3ccccc3C)cc2)C1 [(3E,5S)-5-(hydroxymethyl)-1-[(2′-methyl-1,1′-biphenyl-4-yl)carbonyl]pyrrolidin-3-one O-methyloxime] | no inhibition |  |  |  |  |  |  |  |  |  |  | 
2 | CO/N=C1/C[C@@H](CO)N(C(=O)c2ccc(-c3ccccc3C)cc2)C1 [(3Z,5S)-5-(hydroxymethyl)-1-[(2′-methyl-1,1′-biphenyl-4-yl)carbonyl]pyrrolidin-3-one O-methyloxime] |  | no detectable interconversion | 40 vol hot | 4 vol hot | 4 vol hot | 4 vol cold | insoluble in 20 vol | 6 vol hot | 2 vol cold | no evidence | no detectable isomeric interconversion | 0.12 µM
